The source of these data is patent US12276667B2, “Isolation and characterization of the nuclear proteome” (Altius Institute for Biomedical Sciences, priority 2018, dated 2025).

The test system of the assay is IKZF1. Briefly: Nuclear proteome by mass spectrometry (DIA) after cell treatment with thalidomide. Type of assay: cell-based. To be noted: cells treated with thalidomide; FIG. 14. On the procedure:
First, cells of interest are isolated. This is done by harvesting, homogenizing, washing, and then pelleting the cells of interest. The pellet is then resuspended in a buffer A not comprising polycations (e.g., no spermidine or spermine). NP40 detergent solution is then added to isolate nuclei and cells are spun and are pelleted. Optionally, prior to salt extraction, the pellet is treated with MNase at 37° C. for 5 minutes and is quenched with EDTA. The pellet is resuspended in buffer A and […] NaCl, and then is incubated at 4° C. for 30 minutes. The insoluble chromatin is pelleted for later analysis. The supernatant is used for further analysis.
400 ul of 01.% PPS is added to the nuclear pellet of EXAMPLE 1, which is then sonicated at a setting output of 5 for 30 seconds and a protein concentration is determined using A280 reading. The sample is then boiled at 99 C for 5 minutes, is allowed to cool at room temperature, and is then briefly spun down. DTT is added for a final concentration of 5 mM, and is incubated at 60° C. for 30 minutes. Next, IAA is added for a final concentration of 15 mM, and is incubated at room temperature in the dark for 30 minutes. […]
Data were acquired on a ThermoFisher QExactive-HF instrument operating in DIA mode. […] Peptide quantification was performed using EncyclopeDIA software. […]

For `O=C1CCC(N2C(=O)c3ccccc3C2=O)C(=O)N1` (stereo not shown) [thalidomide], the “pharmacological degradation of IKZF1 after cell treatment” value is reported as “degraded”.
